Data reported in US8163909B2, “Substituted hydroxyethyl amine compounds as beta-secretase modulators and methods of use” (Amgen Inc., priority 2007, dated 2012).
pIC50: −log10 of the molar value. Read-outs that look alike come from different tables or passages of the source.

Assays:
CYP3A4 (CYP3A) = CYP3A4 (CYP3A) (Homo sapiens, UniProt P08684); assay: in vitro; conditions: microsomes, pH 7.4;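 further: inhibition of CYP3A-mediated 1-hydroxymidazolam formation after 10 min incubation with NADPH, quantified by HPLC MS relative to metabolite produced without test compound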
CYP3A4 (CYP3A), sequence (P08684 2-503): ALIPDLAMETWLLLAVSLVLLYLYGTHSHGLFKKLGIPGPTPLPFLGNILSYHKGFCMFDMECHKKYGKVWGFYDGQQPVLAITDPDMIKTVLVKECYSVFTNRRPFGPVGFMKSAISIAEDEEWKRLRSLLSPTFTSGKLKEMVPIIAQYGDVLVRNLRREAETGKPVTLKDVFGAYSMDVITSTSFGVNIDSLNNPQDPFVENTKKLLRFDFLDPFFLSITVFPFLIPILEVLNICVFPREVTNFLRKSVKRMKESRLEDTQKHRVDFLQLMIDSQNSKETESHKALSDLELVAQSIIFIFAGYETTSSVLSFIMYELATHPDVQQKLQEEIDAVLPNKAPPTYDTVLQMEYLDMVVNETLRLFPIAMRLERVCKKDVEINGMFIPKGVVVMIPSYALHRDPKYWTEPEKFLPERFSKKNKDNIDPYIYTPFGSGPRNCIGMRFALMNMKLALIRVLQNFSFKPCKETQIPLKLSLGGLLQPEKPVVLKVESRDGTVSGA

[1] = molecular target: Beta Secretase enzyme (BACE) (Homo sapiens, UniProt P56817); assay: In vitro enzymatic BACE FRET (fluorescence resonance energy transfer) assay; type: biochemical; conditions: for IC50: IC50's in uM;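 on all read-outs here: fluorescence read after 1 h with 50 nM quenched peptide substrate spanning the BACE cleavage site, in pH 4.2 acetate buffer containing 10% DMSO and nonionic detergent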
Beta Secretase enzyme (BACE), sequence (P56817 46-501): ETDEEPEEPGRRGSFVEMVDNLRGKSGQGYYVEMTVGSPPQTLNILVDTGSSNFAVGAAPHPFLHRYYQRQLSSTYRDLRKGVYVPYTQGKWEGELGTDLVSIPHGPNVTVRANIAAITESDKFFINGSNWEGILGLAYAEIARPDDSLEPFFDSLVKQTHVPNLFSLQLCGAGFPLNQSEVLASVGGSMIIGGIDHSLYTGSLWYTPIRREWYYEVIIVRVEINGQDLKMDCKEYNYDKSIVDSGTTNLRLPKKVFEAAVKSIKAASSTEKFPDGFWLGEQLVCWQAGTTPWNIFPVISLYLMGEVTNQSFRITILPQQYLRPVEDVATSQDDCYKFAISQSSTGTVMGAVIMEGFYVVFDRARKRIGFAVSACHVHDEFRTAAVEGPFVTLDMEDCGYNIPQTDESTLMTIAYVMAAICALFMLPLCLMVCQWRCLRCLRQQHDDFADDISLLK

CYP2D6 = CYP2D6 (Homo sapiens, UniProt P10635); assay: CYP2D6 inhibition assay (bufuralol, pooled human liver microsomes); conditions: for IC50: 2D6 IC50 (uM)
CYP2D6, sequence (P10635 whole entry): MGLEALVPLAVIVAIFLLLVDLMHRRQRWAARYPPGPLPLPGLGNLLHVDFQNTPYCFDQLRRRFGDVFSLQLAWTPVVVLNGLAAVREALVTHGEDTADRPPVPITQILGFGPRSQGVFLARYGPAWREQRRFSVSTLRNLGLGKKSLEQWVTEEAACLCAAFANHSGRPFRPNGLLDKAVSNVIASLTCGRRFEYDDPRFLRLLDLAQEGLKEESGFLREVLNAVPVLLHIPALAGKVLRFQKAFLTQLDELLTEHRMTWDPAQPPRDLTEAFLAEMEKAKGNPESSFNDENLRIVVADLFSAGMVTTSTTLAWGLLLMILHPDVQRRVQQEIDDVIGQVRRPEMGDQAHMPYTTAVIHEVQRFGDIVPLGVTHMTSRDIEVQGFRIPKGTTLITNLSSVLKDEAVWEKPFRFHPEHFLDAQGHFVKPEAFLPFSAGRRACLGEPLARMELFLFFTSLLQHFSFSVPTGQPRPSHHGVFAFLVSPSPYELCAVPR

[2] = Microsomal stability assay, human liver microsomes;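 further: pooled human liver microsomes at 0.25 mg/mL with 1 µM compound and NADPH at 37 °C, pH 7.4, for 30 min, unchanged parent quantified by LC-MS/MS against the 0 min sample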
[3] = Microsomal stability assay, rat liver microsomes;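 further: rat liver microsomes (0.25 mg/mL) with about 1 µM compound plus 1 mM NADPH, pH 7.4, 37 °C for 30 min, parent left measured by LC-MS/MS against 0 min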
[4] = system: Aβ40 in conditioned medium of cells stably expressing Amyloid Precursor Protein (APP); assay: In vitro BACE cell-based assay (Aβ40 in conditioned medium, sandwich ELISA); conditions: Homo sapiens; for IC50: IC50's in uM;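 on all read-outs here: compounds added as a dilution series, secreted peptide quantified by europium time-resolved fluorescence readout, potency fitted from percent of control versus compound concentration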
[5] = read-out: BACE1 FRET assay (IC50)
[6] = HEK293, HEK cells, read-out: HEK cell assay (IC50)
[7] = BACE enzyme assay, read-out: BACE1 FRET assay
[8] = HEK293, HEK cell-based assay, read-out: HEK cell assay
[9] = Table 2, read-out: BACE1 FRET assay
[10] = 2D6 IC50, CYP enzyme inhibition
[11] = HEK293, Table 2, HEK cells, read-out: HEK cell assay
[12] = BACE enzyme assay IC50, read-out: BACE1 FRET assay
[13] = HEK293, HEK cell-based assay IC50, read-out: HEK cell assay
[14] = HEK293, HEK cells, read-out: HEK cell assay

| Compound | pIC50 (CYP3A4 (CYP3A)) | HLM ([2]; human liver microsomes) [µL/min/mg] | RLM ([3]; rat liver microsomes) [µL/min/mg] | IC50 (CYP2D6; CYP enzyme inhibition) [µM] | HLM ([2]; human liver microsomal data) [µL/min/mg] | RLM ([3]; rat liver microsomal data) [µL/min/mg] | pIC50 (CYP2D6; [10]) | also measured |
| --- | --- | --- | --- | --- | --- | --- | --- | --- |
| COCC(=O)N[C@@H](Cc1ccc2c(c1)OCO2)[C@H](O)CN[C@H]1CC2(CCC2)Oc2c1cc(CC(C)C)nc2Cl [compound 656] | 7.00 | 131 | 180 |  |  |  |  | pIC50 [1, 5]: 7.29; pIC50 (CYP2D6; 2D6 IC50, CYP2D6 inhibition): 5.28; pIC50 [4, 6]: 6.11 |
| COCC(=O)N[C@@H](Cc1cc(-c2nccs2)cc(-c2nccs2)c1)[C@H](O)CN[C@H]1CC2(CCC2)Oc2ncc(CC(C)(C)C)cc21 [compound 839] | 7.00 |  |  | 0.4 | 62 | 57 |  | IC50 [1, 7]: 0.258 µM; IC50 [4, 8]: 0.477 µM |
| COCC(=O)N[C@@H](Cc1cc(F)cc(F)c1)[C@H](O)CN[C@H]1CC2(CCC2)Oc2c(-c3cnc[nH]3)cc(CC(C)C)cc21 [compound 480] | 6.30 |  |  |  | 272 | 405 | 5.00 | pIC50 [1, 9]: 7.64; pIC50 [4, 11]: 8.22 |
| CC(=O)N[C@@H](Cc1cccc(-c2ncc[nH]2)c1)[C@H](O)CN[C@H]1CC2(CCC2)Oc2ncc(CC(C)(C)C)cc21 [Example 429, N-((2S,3R)-1-(3-(1H-imidazol-2-yl)phenyl)-4-((S)-2,2-spirocyclobutyl-6-neopentyl-3,4-dihydro-2H-pyrano[2,3-b]pyridin-4-ylamino)-3-hydroxybutan-2-yl)acetamide] | 5.89 | 88 | 37 |  |  |  |  | pIC50 [1, 12]: 5.44; IC50 (CYP2D6; CYP2D6 inhibition): 0.5 µM; pIC50 [4, 13]: 6.22 |
| Cc1ccc(CN2CCO[C@H](C(=O)N[C@@H](Cc3ccc(F)cc3)[C@H](O)CN[C@H]3CC4(CCC4)Oc4ncc(CC(C)(C)C)cc43)C2)cc1 [compound 708] | 6.70 | 310 | 278 |  |  |  |  | pIC50 [1, 12]: 6.81; IC50 (CYP2D6; CYP2D6 inhibition): 6.8 µM; pIC50 [4, 13]: 6.59 |
| CO[C@H](C)C(=O)N[C@@H](Cc1ccc2c(c1)OCO2)[C@H](O)CN[C@H]1CC2(CCC2)Cc2sc(CC(C)(C)C)cc21 [compound 455] | 5.59 |  |  |  | 211 | 201 | 5.26 | pIC50 [1, 9]: 7.31; pIC50 [4, 11]: 6.64 |
| COCC(=O)N[C@@H](Cc1ccccc1)[C@H](O)CN[C@H]1CC2(CCC2)Oc2ccc(C[C@H](C)F)cc21 [compound 611] | 4.74 | 644 | 775 |  |  |  |  | pIC50 [1, 5]: 6.99; pIC50 (CYP2D6; 2D6 IC50, CYP2D6 inhibition): 5.92; pIC50 [4, 6]: 6.94 |
| CC(C)(C)Cc1cnc2c(c1)[C@@H](NC[C@@H](O)[C@H](Cc1cccc(C#N)c1)NC(=O)[C@H]1CCCO1)CC1(CC(F)(F)C1)O2 [compound 472] | 6.10 |  |  |  | 736 | 775 | 5.15 | pIC50 [1, 9]: 8.30; pIC50 [4, 11]: 7.82 |
| CO[C@H](C)C(=O)N[C@@H](Cc1cc(Cl)ccc1F)[C@H](O)CN[C@H]1CC2(CCC2)Oc2ncc(CC(C)(C)C)cc21 [compound 899] | 7.00 |  |  |  | 443 | 543 | 5.59 | IC50 [1, 7]: 0.005 µM; IC50 ([4]; HEK293, cell-based assay, HEK cells, read-out: HEK cell assay): 0.009 µM |
| CO[C@H](C)C(=O)N[C@@H](Cc1cc(F)cc(Cl)c1)[C@H](O)CN[C@H]1CC2(CCC2)Oc2ncc(CC(C)(F)F)cc21 [compound 820] | 6.52 |  |  | 3.8 | 682 | 324 |  | IC50 [1, 7]: 0.022 µM; IC50 [4, 8]: 0.021 µM |
| COCC(=O)N[C@@H](Cc1ccc2c(c1)OCO2)[C@H](O)CN[C@H]1CC2(CCC2)Oc2ccc(C[C@H](C)F)cc21 [compound 557] | 6.52 |  |  | 0.5 | 193 | 344 |  | pIC50 [1, 7]: 5.42; pIC50 [4, 14]: < 5.00 |
| CC(=O)N[C@@H](Cc1cc(F)cc(F)c1)[C@H](O)CN[C@H]1CC2(CCC2)Oc2ncc(C(F)(F)C(C)(C)C)cc21 [compound 627] | 5.68 | 829 | 166 |  |  |  |  | pIC50 [1, 5]: 8.15; pIC50 (CYP2D6; 2D6 IC50, CYP2D6 inhibition): 4.58; pIC50 [4, 6]: 7.33 |
| COCC(=O)N[C@@H](Cc1cc(F)cc(F)c1)[C@H](O)CN[C@H]1CC2(CCC2)Oc2c(-c3ccncc3)cc(Cl)cc21 [compound 560] | 6.70 |  |  | 0.4 | 209 | 829 |  | pIC50 [1, 7]: 7.31; pIC50 [4, 14]: 7.24 |
